Measurements reported in the supplement of paper PMC11451515.

Legend:
Assay in all cases: AUC of viability dose-response curve (% viability x log10 dose units); higher = less sensitive
Conditions in all cases: 48 h
NOMO1 = tested on: NOMO1
Method in brief: (§1)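 Library compounds in DMSO were applied for 48 h at 37°C at 11 threefold doses (47 μM to 0.79 nM) to medium-adapted leukemia cells in 1536-well plates holding 500 or 1000 cells/well. Luminescence from CellTiter-Glo One was normalised plate by plate against DMSO and cell-free wells. Area under the curve came from trapezoidal integration of a log-logistic fit, after scaling curves that rose above full viability and discarding those that failed quality control. The fit had four parameters and used log10 doses.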

SEM cells = tested on: SEM cells
Method in brief: as §1

P12-Ichikawa = tested on: P12-Ichikawa
Method in brief: as §1

[1] = RPMI 5 mM glucose + 10% dialyzed FBS

Row | SMILES | AUC of viability dose-response curve (NOMO1; HPLM + 10% dialyzed FBS) | AUC of viability dose-response curve (NOMO1; RPMI 5 mM glucose + 10% FBS) | AUC of viability dose-response curve (NOMO1; [1]) | AUC of viability dose-response curve (SEM cells; HPLM + 10% dialyzed FBS) | AUC of viability dose-response curve (SEM cells; RPMI 5 mM glucose + 10% FBS) | AUC of viability dose-response curve (SEM cells; [1]) | AUC of viability dose-response curve (P12-Ichikawa; HPLM + 10% dialyzed FBS) | AUC of viability dose-response curve (P12-Ichikawa; RPMI 5 mM glucose + 10% FBS) | AUC of viability dose-response curve (P12-Ichikawa; [1])
1 | CC(C)OC(=O)/C1=C/N(CC(C)(C)C2=C1[NH]C3=CC=CC=C23)C(=O)C4=CC=C(F)C(=C4)F | 424 | 384 | 351 | 342 | 364 | 394 | – | – | –
2 | C[S+](=O)([O-])Nc1ccc([N+](=O)[O-])cc1Oc1ccccc1 | 452 | 465 | 464 | 467 | 449 | 464 | 461 | 456 | 460
3 | NC1=C(Cl)C(=CC=N1)OC2=C(F)C=C(NC(=O)\C3=C\N\C=C(C3=O)\C4=CC=C(F)C=C4)C=C2 | 441 | 452 | 453 | 312 | 287 | 247 | 451 | 448 | 447
4 | CNCC(O)c1ccc(O)cc1 (stereo not drawn) | 446 | 455 | 441 | 423 | 452 | 459 | 464 | 466 | 469
5 | S=C(NCc1ccc2c(c1)OCO2)N1CCN(c2ncnc3c2oc2ccccc23)CC1 | 416 | 438 | 445 | – | – | – | 406 | 387 | 389
6 | c1ccc(CCCN2CCN(CCOC(c3ccccc3)c3ccccc3)CC2)cc1 | 434 | 409 | 405 | – | – | – | 431 | 432 | 406
7 | OC[C@@H](O)[C@@H](O)[C@H](O)[C@@H](O)CO | 465 | 472 | 445 | 401 | 472 | 452 | 452 | 453 | 449
8 | C[N]1C=C(C=N1)C2=C3\C=N/NC(=O)C4=C3C(=CC(=C4)NC(=O)[C@H](N)C5CCCCC5)[NH]2 | 403 | 390 | 384 | 309 | 334 | 283 | 395 | 387 | 371
9 | CC(C)OC(=O)C(C(=O)OC(C)C)=C1S\C=C/S1 | 425 | 435 | 437 | 458 | 446 | 438 | 443 | 433 | 424
10 | CC[C@]12CC[C@H]3[C@@H](CCC/4=C/C(=O)CC[C@H]34)[C@@H]1\C=C/[C@@]2(O)C#C | 461 | 451 | 450 | 446 | 465 | 464 | 473 | 473 | 470
11 | COc1ccc(-c2ccc3ncc4c(c3c2)n(-c2ccc(N3CCNCC3)c(C(F)(F)F)c2)c(=O)n4C)cn1 | 209 | 255 | 218 | – | – | – | – | – | –
12 | COc1cc(OC2CCN(C)CC2)ccc1Nc1ncc2c(n1)n(C1CCCC1)c(=O)n2C | 427 | 373 | 393 | 326 | 346 | 324 | 408 | 380 | 363
13 | CCN1CCN(CC1)CC(=O)NC2=CC=C(C3=C2C4=C(S3)C=CC=C4)C5=C6O\C(=C/C(=O)C6=CC=C5)N7CCOCC7 | 420 | 442 | 432 | 337 | 337 | 338 | 464 | 447 | 453
14 | CCOC(=O)[C@@H](N)Cc1ccc(-c2cc(O[C@H](c3ccc(Cl)cc3-n3ccc(C)n3)C(F)(F)F)nc(N)n2)cc1.O=C(O)CNC(=O)c1ccccc1 | 449 | 448 | 447 | 462 | 457 | 458 | 466 | 453 | 460
15 | CNCCCC12CCC(c3ccccc31)c1ccccc12 | 429 | 426 | 411 | 453 | 443 | 469 | 442 | 439 | 428
16 | C[C@@]12C(=O)OC(=O)[C@@]1(C)C1CCC2O1 | 391 | 371 | 392 | 400 | 392 | 377 | 407 | 405 | 407
17 | NC\1=N\C(=O)N(\C=C1)[C@@H]2O[C@H](CO)[C@@H](O)[C@@H]2O | 186 | 201 | 154 | – | – | – | 38 | 25.6 | 39.2
18 | Cc1ccccc1C(=O)c1ccc(Nc2ccc(Br)cc2N)cc1Cl | 467 | 466 | 455 | – | – | – | 454 | 461 | 441
19 | O=C(O)C1(Cc2cccc(Nc3nccs3)n2)CCC(Oc2cccc(Cl)c2F)CC1 (stereo not drawn) | 381 | 382 | 386 | 370 | 369 | 368 | 356 | 373 | 381
20 | CC(C)C1NC(=O)C(NC(=O)C2=C3\N=C\4/C(=C(C)\C(=O)\C(=C4C(=O)NC5C(C)OC(=O)C(C(C)C)N(C)C(=O)CN(C)C(=O)C6CCCN6C(=O)C(NC5=O)C(C)C)N)OC3=C(C)C=C2)C(C)OC(=O)C(C(C)C)N(C)C(=O)CN(C)C(=O)C7CCCN7C1=O (stereo not drawn) | 27.9 | 28.1 | 23 | 26.3 | 20.8 | 23.4 | 31.2 | 24.5 | 38
21 | COC\1=C(/OC)C(=O)\C(=C(C)/C1=O)CCCCCCCCCCO | 461 | 464 | 468 | 460 | 471 | 456 | 471 | 456 | 459
22 | Cc1onc(-c2ccccc2Cl)c1C(=O)N[C@@H]1C(=O)N2[C@@H]1SC(C)(C)[C@@H]2C(=O)[O-] | 455 | 437 | 424 | 402 | 435 | 464 | 469 | 451 | 456
23 | CN[C@@H](C)[C@H]1[C@H](O)C[C@@]2(C)[C@@H]3CC[C@H]4C(C)(C)[C@@H](NC)CC[C@@]45C[C@@]35CC[C@]12C | 445 | 454 | 445 | 376 | 392 | 399 | 464 | 450 | 425

Row | SMILES | AUC of viability dose-response curve (NOMO1; HPLM + 10% dialyzed FBS) | AUC of viability dose-response curve (NOMO1; RPMI 5 mM glucose + 10% FBS) | AUC of viability dose-response curve (NOMO1; [1]) | AUC of viability dose-response curve (SEM cells; HPLM + 10% dialyzed FBS) | AUC of viability dose-response curve (SEM cells; RPMI 5 mM glucose + 10% FBS) | AUC of viability dose-response curve (SEM cells; [1]) | AUC of viability dose-response curve (P12-Ichikawa; HPLM + 10% dialyzed FBS) | AUC of viability dose-response curve (P12-Ichikawa; RPMI 5 mM glucose + 10% FBS) | AUC of viability dose-response curve (P12-Ichikawa; [1])
24 | O=C(O)CCC1CCC(c2cc(F)ccc2F)([S+](=O)([O-])c2ccc(Cl)cc2)CC1 (stereo not drawn) | 373 | 357 | 378 | 464 | 470 | 468 | 403 | 412 | 428
25 | COc1cc(F)c(F)c(Nc2ccc(I)cc2F)c1N[S+](=O)([O-])C1(C[C@H](O)CO)CC1 | 449 | 455 | 457 | 465 | 443 | 461 | 450 | 461 | 456
26 | CC[S+](=O)([O-])c1cccc(-c2cc(C(=O)NC3CCN(C)CC3)c(C)c3[nH]c4ncc(C)cc4c23)c1 | 354 | 385 | 359 | 312 | 285 | 297 | 298 | 290 | 320
27 | COc1ccccc1OCC(O)COC(N)=O (stereo not drawn) | – | – | – | 467 | 465 | 459 | 466 | 461 | 461
28 | COc1ccc([C@@H]2CC(=O)c3c(O)cc(O[C@@H]4O[C@H](CO[C@@H]5O[C@@H](C)[C@H](O)[C@@H](O)[C@H]5O)[C@@H](O)[C@H](O)[C@H]4O)cc3O2)cc1O | 477 | 457 | 468 | 465 | 469 | 469 | 467 | 468 | 473
29 | O=C(C=CC#Cc1cccc(N[S+](=O)([O-])c2ccccc2)c1)NO | 367 | 374 | 371 | 354 | 358 | 352 | 353 | 345 | 346
30 | CC1(C)O[C@@H]2C[C@H]3[C@@H]4C[C@H](F)C5=CC(=O)C=C[C@]5(C)[C@@]4(F)[C@@H](O)C[C@]3(C)[C@]2(C(=O)CO)O1 | 460 | 460 | 457 | 305 | 314 | 291 | 324 | 303 | 272
31 | CC(C)N[C@@H]1CCn2c(=O)[nH]c3cccc(c32)[C@H]1O | 426 | 460 | 424 | 463 | 465 | 473 | 459 | 437 | 457
32 | OC[C@H]1O[C@H]([C@H](O)[C@@H]1O)N2\C=C/C(=O)NC2=O | 448 | 429 | 455 | 463 | 447 | 450 | 473 | 456 | 466
33 | c1ccc2[nH]c(-c3cscn3)nc2c1 | 452 | 474 | 474 | 439 | 419 | 445 | 446 | 470 | 461
34 | CN[C@@H]1[C@@H](O)[C@@H](O[C@@H]2[C@@H](O)[C@H](O[C@H]3O[C@H](CN)[C@@H](O)[C@H](O)[C@H]3O)[C@@H](N)C[C@H]2NC(=O)[C@@H](O)CN)OC[C@]1(C)O | 452 | 457 | 440 | 453 | 463 | 468 | 457 | 449 | 411
35 | CC(C)(C#N)c1cc(Cn2cncn2)cc(C(C)(C)C#N)c1 | – | – | – | – | – | – | 466 | 456 | 442
36 | NNCCc1ccccc1 | 433 | 450 | 467 | 444 | 466 | 468 | 465 | 464 | 470
37 | CC[C@H](NC1=C2N=C[NH]C2=NC=N1)C/3=N/C4=C(C(=CC=C4)F)C(=O)N3C5=CC=CC=C5 | 433 | 450 | 432 | 411 | 430 | 442 | 436 | 395 | 401
38 | CCC1(c2ccccc2)C(=O)NCNC1=O | 442 | 448 | 471 | 441 | 445 | 452 | 471 | 453 | 466
39 | N[S+]([O-])(=O)C1=C(Cl)C=C2\N=C/N[S+]([O-])(=O)C2=C1 | 465 | 470 | 475 | 380 | 426 | 418 | 459 | 456 | 468
40 | Cc1c(C)n(Cc2ccc(-c3ccccc3C(=O)O)cc2)c2ccc(C(=O)N[C@@H](C)c3ccc([N+](=O)[O-])cc3)cc12 | 421 | 411 | 417 | 460 | 466 | 470 | 425 | 423 | 422
41 | N#CCNC(=O)c1ccc(-c2ccnc(Nc3ccc(N4CCOCC4)cc3)n2)cc1 | – | – | – | 405 | 412 | 394 | 447 | 442 | 434
42 | Cc1nc2cnc3ccc(C#Cc4cccnc4)cc3c2n1-c1ccc(C(C)(C)C#N)cc1 | 264 | 259 | 268 | – | – | – | 314 | 251 | 255
43 | C[C@@H](Oc1cc(-c2cnn(C3CCNCC3)c2)cnc1N)c1c(Cl)ccc(F)c1Cl | 391 | 429 | 424 | – | – | – | 419 | 415 | 400
44 | Cn1cnc2c(F)c(Nc3ccc(Br)cc3F)c(C(=O)NOCCO)cc21 | – | – | – | 392 | 382 | 363 | – | – | –
45 | CC(C)c1nc(CN(C)C(=O)N[C@H](C(=O)N[C@@H](Cc2ccccc2)C[C@H](O)[C@H](Cc2ccccc2)NC(=O)OCc2cncs2)C(C)C)cs1 | – | – | – | 410 | 429 | 427 | 425 | 411 | 396
46 | FC1=CC=C(C=C1)N2/C=C\C=C(C(=O)NC3=CC=C(OC4=C5C=C[NH]C5=NC=C4)C(=C3)F)/C2=O | 445 | 456 | 459 | – | – | – | 465 | 459 | 466
